In US20210214399A1, “PH LOW INSERTION PEPTIDE AND COMPOSITION THEREOF” (priority 2017, published 2021):

Key:
[1] = background art, pHLIP derivatives produced by sequence adjustment; cited from earlier work
[2] = tested on: Mouse colon cancer cells CT26 tumors; settings: for fluorescent marking of tumor tissues by 72 hours: 72 hours after intravenous injection; for marking of tumors (in vivo imaging): CT26 subcutaneous tumors, alexa647 marked peptide intravenously, imaging at 24, 48, 72 hours
Procedure: Mouse colon cancer cells CT26 were subcutaneously inoculated into Balb/c mice, and when the tumors grew to about 1 cm, saline (N.S.), alexa647 marked p-var7, alexa647 marked var7 were intravenously injected respectively with a dosage of 60 μM/100 pL N. S., in vivo imaging (excitation with Cy5.5 wavelength) was performed at 24, 48, 72 hours with supine position photography. The mice were sacrificed for tumor imaging.

[3] = tested on: Human colorectal cancer cell line SW480; settings: for insertion into the surface of the cell (fluorescence on cell membrane): acid solution environment, PBS pH 6.3, alexa647 marked peptide; for insertion into the surface of the cell (fluorescence on cell membrane) / membrane insertion ability: 37° C. 1 hour; for membrane insertion ability: neutral solution environment, PBS pH 7.4, alexa647 marked peptide
Procedure: (1) The SW480 cells in logarithmic phase were collected, the culture solution was discarded, and the cells were washed twice with saline. […] The cells were transferred to a 10 ml test tube to centrifuge at 1000 rpm for 5 min, the supernatant was removed, and 1 ml of RPMI 1640 medium containing 10% fetal bovine serum was added to resuspend and mix the cells. After 10 μl of the cell suspension was added to a cell counting plate and counted, a certain amount of the cell suspension was added into the laser confocal cell culture dish, which was then adjusted to a cell system of 5* 10^5, 1 ml with complete medium, and put into a cell incubator and incubated overnight.
(2) The culture solution was prepared using 1 mol/L hydrochloric acid and a PBS buffer at pH 7.4. Hydrochloric acid was added dropwise to the PBS buffer, and finally the pH value of the buffer was titrated to 6.3.
(3) When the SW480 cells adhered after being cultured overnight, the supernatant of the medium was removed, and the cells were washed twice with a PBS buffer at pH 7.4.
(4) The PBS buffer in the cell culture dish was removed, 1 ml of the previously prepared mixed culture buffers of PBS at pH 6.3 and 7.4 and peptides were added to the two dishes, respectively, and 1 ml of the PBS medium at pH 7.4 without peptides was added to another control dish, and all of them were put in a 37° C. cell incubator to incubate for 1 hour.
(5) After incubation, the supernatant of the peptide-containing PBS culture solution was removed, and the peptide-containing PBS culture solution was washed three times with peptide-free PBS buffers with different pH values in each group, and then added with a PBS buffer at pH 7.4.
(6) The prepared cell culture dishes were placed under the laser confocal microscope (647 mm excitation wavelength) to observe the fluorescence expression on the surface of the cell membrane.

4T1 cells tumors = settings: fusion peptide 1 mg/kg intravenous every other day combined with CD20 monoclonal antibody GA101 30 mg/kg intraperitoneal twice a week; 4T1 tumors, Balb/c mice
Procedure: 4T1 cells were inoculated into mouse breasts, 2×10^6 cells/mouse, 50 μl volume.
(§1) When the tumor grows to 50mm^3, treatment was started.
(§2) The tumor volume and mouse body weight were measured every 3 days.
When the tumor volume in the control group reached 1000 mm^3, the administration was terminated.
When the tumor grows to 50mm^3, treatment was started. There are four groups: CD20-var3/GA101 group (10), GA101 group (5), CD20-var3 group (5), PBS group (10).
Administration method: CD20-var3, 1 mg/kg, intravenous injection, every other day; GA101, 30 mg/kg, intraperitoneal injection, twice a week. The tumor volume and mouse body weight were measured every 3 days.
as §1, §2

A549 tumors = settings: Herceptin 10 mg/kg intraperitoneal combined with Her2 D4-pHLIP 40 μM/100 μl intravenous, nude mice
Procedure: A549 was inoculated into nude mice, when the tumor diameter grew to 1 cm, the tumor was aseptically peeled off, shredded, homogenized, and sieved to make a single cell suspension which was cultured and amplified in 1640 complete medium. The cells were injected into the subcutaneous abdomen of the nude mice with 1×10^6 cells/body, when the tumor diameter grew to 0.5 to 1 cm, the oversized and undersized tumors were removed, and mice with substantially the same tumor size were grouped. There were 4 groups: injection group of the Her2 D4-pHLIP alone, 10; injection group of the Her2 D4-pHLIP combined with the herceptin, 10; injection group of the Her2 D4-pHLIP combined with the IgG1, 10; injection group of normal saline N. S, 10. The tumor size was measured every 3 days.
Administration method: Her2 D4-pHLIP administration: each was injected intravenously with 40 μM/100 μl every time, starting from the day after the grouping was completed, once a day, and once every 2 days; antibody administration: Intraperitoneal injection, the dose was 10 mg/kg, the injection frequency was the same as the Her2 D4-pHLIP, and the injection time was 6 to 12 hours after the administration of the Her2 D4-pHLIP until the end.

ACDDQNPWRAYLDLLFPTDTLLLDLLW (listed as Homo sapiens) [var3]
tumor targeting [1]: improve its tumor targeting

ACEEQNPGGGSACEEQNPWARYLEWLFPTETLLLEL [p-var7]
fluorescent marking of tumor tissues by 72 hours ([2]; CT26 tumors, Balb/c mice): still showed strong fluorescent marking | marking of tumors (in vivo imaging) ([2]; Balb/c mice): could mark tumors | marking ability, compared ([2]; p-var7 compared with var7, CT26 tumors, Balb/c mice): stronger marking ability | accumulation of fluorescence in the tumor sites, persistence ([2]; previous experiment results of in vivo imaging, same dose 40 μM/100 μl intravenously): basically degraded by the third day | insertion into the surface of the cell (fluorescence on cell membrane) [3]: could effectively insert into the surface of human colon cancer cell SW480 | membrane insertion ability [3]: lost | selectivity in the acidic microenvironment ([3]; p-var7 compared with var7, pH 6.3 vs 7.4): more selective in the acidic microenvironment of tumor tissues

ACEEQNPWARYLEWLFPTETLLLEL [var7, reference compound]
fluorescence intensity as time went by ([2]; 24 to 72 hours, var7 compared with p-var7, CT26 tumors, Balb/c mice): decayed more significantly | fluorescent marking of tumor tissues by 72 hours ([2]; CT26 tumors, Balb/c mice): only a few markers were visible in the tumor tissues | marking of tumors (in vivo imaging) ([2]; Balb/c mice): could mark tumors | tumor targeting [1]: maintaining good targeting | insertion into the surface of the cell (fluorescence on cell membrane) [3]: could effectively insert into the surface of human colon cancer cell SW480 | membrane insertion ability [3]: retained the ability

NIYNCEPANP SEKN SP S TQYC Y SIQ GGG SA S EEQNPWARYLEWLFP TETLLLEL [CD20-var7]
tumor cell growth (4T1 cells tumors): can significantly inhibit tumor cells growth

NIYNCEPANP SEKN SP S TQYCYSIQGGGSACDDQNPWRAYLDLLFPTDTLLLD LLW [CD20-var3]
tumor cell growth (4T1 cells tumors): can significantly inhibit tumor cell growth

NIYNCEPANP SEKN SP S TQYCYSIQGGGSACEQNPIYWARYADWLF TTPLLLL DLALLVDADEG [CD20-WT]
tumor cell growth (4T1 cells tumors): can significantly inhibit tumor cell growth

trastuzumab [Herceptin]
tumor growth (A549 tumors): significantly inhibited tumor growth
